# Measurements: publication PMC3606118, “Salvianolic Acid A, a Novel Matrix Metalloproteinase-9 Inhibitor, Prevents Cardiac Remodeling in Spontaneously Hypertensive Rats” (PLoS ONE, 2013)
# Read-outs that look alike come from different tables or passages of the source.
# Tests used:
# MMP-9 CD = target: T1, MMP-9 CD (Homo sapiens, UniProt P14780, DEL217-390); experiment: Real time binding by surface plasmon resonance (Biacore); conditions: steady state affinity fit model; immobilized MMP-9 CD, 25°C; read-out: equilibrium dissociation constant (KD)
# T1 construct: corresponding to residues 107–216 and 391–444; made in house
# T1 sequence (P14780 with tags, fused parts or gaps DEL217-390 limits assumed): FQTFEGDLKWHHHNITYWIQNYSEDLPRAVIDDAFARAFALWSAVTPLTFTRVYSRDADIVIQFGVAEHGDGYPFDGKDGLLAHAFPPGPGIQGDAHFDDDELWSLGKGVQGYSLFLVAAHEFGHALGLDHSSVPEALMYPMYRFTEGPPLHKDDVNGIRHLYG
# Procedure: DNA fragments encoding the catalytic domain of MMP-9 (MMP-9 CD, corresponding to residues 107–216 and 391–444) were constructed and subcloned into a pET-15b vector (Novagen). […]. Surface plasmon resonance analysis was performed using Biacore 3000 (Biacore AB). In brief, MMP-9 CD protein (5.8 µmol/L) in 10 mmol/L sodium acetate buffer (pH 3.73) was covalently immobilized on the hydrophilic carboxymethylated dextran matrix of the CM5 sensor chip (BIAcore AB) using standard primary amine coupling procedure. Phenolic acid at various concentrations in HBS-EP running buffer (10 mmol/L HEPES pH 7.4, 150 mmol/L NaCl, 3.4 mmol/L EDTA and 0.005% surfactant P20) were injected at a constant flow rate of 30 µL/min at 25°C. All data were analyzed by BIAevaluation software and the sensorgrams were processed by automatic correction for nonspecific bulk refractive index effects.
# [1] = test system: neonatal cardiac fibroblast; experiment: Transwell migration of neonatal cardiac fibroblast induced by MMP-9 CD; type: cell-based, Wistar rats; conditions: 1 µmol/L SalA, 200 nmol/L MMP-9 CD, 24 h (MMP-9 alone 85.2±12.4, Con 25.9±2.1)
# Procedure: Primary cardiac fibroblast was obtained from neonatal rats and National Institutes of Health (NIH) Guide for the Care and Use of Laboratory Animals was followed throughout. Wistar rats (2–4 day old) were sacrificed by cervical dislocation; ventricles were minced and digested with 0.1% trypsin at 37°C for 8 min. The liberated cells were collected by centrifugations; non-digested chunk materials were further digested in 0.1% trypsin for an additional 8 min. This digestion procedure was repeated 3–4 times. All the liberated cells were pelleted by centrifugation at 1,000 rpm for 10 min, re-suspended in DMEM containing 10% fetal bovine serum (FBS), and cultured in a 100-mm noncoated culture flask at 37°C with 5% CO2 for 2 h. Adherent cardiac fibroblasts were collected and maintained in DMEM supplemented with 10% FBS, 100 U/mL penicillin, 100 µg/mL streptomycin [12]. […]
# Transwell assay was employed to evaluate effects of SalA on neonatal cardiac fibroblast migration induced by MMP-9 CD. […] After incubating for 24 h, migrated cells (in the lower side of migration chamber) were stained with 0.1% crystal violet and counted with a microscope at 200 X magnification. Five to six view fields were counted on each membrane. Migration is expressed as the mean value of total number of migrated cells per field.
# MMP-9 = target: T2, MMP-9 (Rattus norvegicus, UniProt P50282); experiment: In-gel gelatin zymography of SHR heart, MMP-9; type: in vivo, SHR rats; conditions: SalA i.p. everyday for 4 weeks
# T2 construct: twenty µg protein from tissue; from tissue; host or cells: heart of spontaneously hypertensive rats (SHR)
# Procedure: The enzymatic activities of H9c2 cells or tissue samples were detected by in-gel gelatin zymography. In brief, twenty µg protein from tissue or twenty microliter culture supernatant of H9c2 cells with different treatments was electrophoresed in 10% SDS-PAGE containing 1% gelatin as MMP substrate under non-reducing conditions. After electrophoresis, the gel was washed in 1% Triton X-100 for 1 h, rinsed in water, and incubated overnight in substrate buffer containing 50 mmol/L Tris-HCl, 5 mmol/L CaCl2, and 150 mmol/L NaCl (pH 7.5) at 37°C with gentle shaking. Then, the gel was stained in 0.1% Coomassie Blue R-250 and destained using 10% methanol, 5% acetic acid solution. The gel was scanned using a MiniBis system (DNR Bio-Imaging Systems Ltd) and the detected protein species corresponding to the expected molecular weight of MMP-9 was visualized.
# (§1) 2-month old male SHR rats were given rodent chow containing 8% NaCl 4 weeks before SaA treatment to the end of the experiment. Rats were divided into four groups (20 per group) and were injected intraperitoneally with saline or SalA everyday at the indicated dose for 4 weeks. The four groups were named as SalA (0 mg/kg), SalA (2.5 mg/kg), SalA (5 mg/kg), SalA (10 mg/kg) basing on the dose of SalA, respectively.
# [2] = test system: spontaneously hypertensive rats (SHR); type: in vivo; conditions: for HW/BW (heart weight divided by body weight): 0 mg 4.37±0.08; for collagen volume fraction: 0 mg/kg 4.61±0.31
# Procedure: as §1
# After ketamine-xylazine anesthesia (ketamine: xylazine, 60∶5 mg/kg, intramuscularly), heart, liver and kidney samples from experimental animals were fixed with 4% neutral-buffered paraformaldehyde for 24 h. Specimens were paraffin-embedded, sliced at 5 µm, and stained with haematoxylin and eosin. After staining, the sections were rinsed with distilled water, dehydrated, and mounted with Permount. Photomicrographs were taken using an Olympus BX51 microscope plus Olympus DP71 CCD camera (Olympus Corporation). Software Image-Pro Plus version 6.0 was used and approximately 150 cells per heart were measured to determine the average myocyte circumference. Paraffin-embedded slices were also stained with 0.1% picric sirius red (Sigma-Aldrich Inc, St Louis, USA) for fibrillar collagen. Collagen volume fraction (CVF) was expressed as a percentage of the total area of the field occupied by collagen staining.
# [3] = 2.5 mg/kg i.p. everyday 4 weeks
# T2 sequence (P50282 108-708): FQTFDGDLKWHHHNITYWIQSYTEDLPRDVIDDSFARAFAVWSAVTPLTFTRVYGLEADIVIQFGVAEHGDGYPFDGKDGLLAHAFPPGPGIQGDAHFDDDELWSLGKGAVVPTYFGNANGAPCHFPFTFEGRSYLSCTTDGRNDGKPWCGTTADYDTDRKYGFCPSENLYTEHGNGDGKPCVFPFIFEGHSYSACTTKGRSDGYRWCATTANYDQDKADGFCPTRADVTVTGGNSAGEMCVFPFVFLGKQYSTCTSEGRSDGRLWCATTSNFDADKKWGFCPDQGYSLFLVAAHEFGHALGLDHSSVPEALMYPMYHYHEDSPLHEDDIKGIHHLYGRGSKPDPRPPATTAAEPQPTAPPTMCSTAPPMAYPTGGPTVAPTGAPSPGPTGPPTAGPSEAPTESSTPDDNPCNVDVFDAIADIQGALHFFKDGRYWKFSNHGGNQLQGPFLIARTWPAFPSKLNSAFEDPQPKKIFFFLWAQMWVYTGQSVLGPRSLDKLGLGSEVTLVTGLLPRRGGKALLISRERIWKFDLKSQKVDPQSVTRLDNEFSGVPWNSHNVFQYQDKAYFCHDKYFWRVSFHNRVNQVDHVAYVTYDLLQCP
smiles,measurement,setting,value
"O=C(/C=C/c1ccc(O)c(O)c1/C=C/c1ccc(O)c(O)c1)O[C@H](Cc1ccc(O)c(O)c1)C(=O)O [SalA, salvianolic acid A]",Kd,MMP-9 CD,0.8 µM
same,migrated cells,[1],45.3±9.1 cells per field
same,MMP-9 activity in heart of SHRs,MMP-9,inhibited by SalA significantly
same,HW/BW (heart weight divided by body weight),[2]; [3],4.36 ± 0.05 mg/g
same,collagen volume fraction,[2]; [3],4.48±0.29%
same,HW/BW (heart weight divided by body weight),[2]; 5 mg/kg i.p. everyday 4 weeks,4.37 ± 0.08 mg/g
same,collagen volume fraction,[2]; 5 mg/kg i.p. everyday 4 weeks,3.04±0.16%
same,HW/BW (heart weight divided by body weight),"[2]; 10 mg/kg i.p. everyday 4 weeks, p<0.05",4.10 ± 0.08 mg/g
same,collagen volume fraction,[2]; 10 mg/kg i.p. everyday 4 weeks,2.58±0.17%
same,cardiomyocyte size (myocyte circumference),"[2]; SalA treatment versus SHR, p<0.001",significantly down-regulated
